In patent publication US12583829B2, “Salt of benzothiazole compound, and crystal form and use thereof” (Sichuan Kelun Pharmaceutical Research Institute Co., Ltd., priority 2020, dated 2026) one finds solubility, T1/2 and Tmax data, which are given here for one compound.

A short description of series [1]: Solubility test in pure water, room temperature, HPLC. The series is classed as physicochemical. The following applies: thermodynamic from solid, excess sample, shaken at room temperature for 15 h, filtered.
Protocol: The samples were taken into pure water, and an excess amount of samples were added, which were then shaked at room temperature for 15 h, and filtered, and detected by HPLC. HPLC test conditions: mobile phase: sodium octanesulfonate-potassium dihydrogen phosphate buffer solution (5.0 g of sodium octanesulfonate and 9.1 g of potassium dihydrogen phosphate were taken, and added into 1000 ml of water for dissolution, and the pH was adjusted to 3.0 with phosphoric acid)-acetonitrile (72:28); The detection wavelength was 264 nm; The flow rate was 1.5 ml per minute; The column temperature was 40° C.; Injection volume: 10 μl; Chromatographic column: octadecyl silane bonded silica gel as filler (CAPCELL PAK MG II C18, 4.6 mm×250 mm, 5 μm).
For series [2] the following is noted: rats, FDA data for Mirapex ER (pramipexole dihydrochloride), NDA 22-421; cited from earlier work.

Structures are written as SMILES.

The term solubility denotes the concentration that dissolves in the medium under given conditions. A word on the Tmax: it is the time from dosing to the highest level. For `CCCN[C@H]1CCc2nc(N)sc2C1` [Compound of formula I, (S)-2-amino-4,5,6,7-tetrahydro-6-propylamine-benzothiazole], the solubility at 15 h in series [1] turned out to be 140 µg/mL. Moreover, in series [2], the T1/2 is listed as 3.18 h and the Tmax was 0.5 h.
